Where “and” joins values, the source holds several entries; their conditions need not be identical. Identical values can stand only once. Like-named read-outs stand apart in the source and are kept apart here.
What was measured:
[1] = single rising oral dose Phase 1 pharmacokinetics in healthy subjects; assay type: in vivo, human; conditions: for AUC(0-t): read-out: AUC0-24
Procedure: All subjects were healthy adults. […] Systemic exposures were greater than dose proportional up to 600 mg.

[2] = single-dose PK in patients with renal impairment; assay type: in vivo, human; conditions: for CL/F, geometric LS mean / Fe[urine]48 hr, geometric mean: single 100 mg
Description: The relationship between clearance and renal function was modeled using linear regression.

[3] = drug interaction studies: effect of co-administered medication on vibegron PK; assay type: in vivo, human
Description: However, these interactions are not expected to be clinically significant.

men and women with OAB = assay: Phase 2b study in OAB, efficacy (voiding diary); assay type: in vivo, human
Description: Part 2 was designed to continue to assess the safety and efficacy of concomitant dosing. […] Subjects in both Part 1 and Part 2 had the option of enrolling in a 1-year extension. Participants were required to keep a voiding diary, recording the occurrence of each strong urge, total incontinence, and urge incontinence episode. Efficacy data for Part 1 and Part 2 are summarized herein.
The total number of urgency incontinence episodes must have exceeded the total number of stress incontinence episodes for all subjects.

[4] = system: patients with overactive bladder
Description: A placebo group was included in the main study, and a group that received tolterodine monotherapy was included in the main study and in the extension.

[5] = human, in vivo
[6] = in vivo
[7] = drug interaction study of vibegron 75 mg and rifampin; conditions: for CL/F, geometric mean / V/F, geometric mean: single 75 mg
[8] = male, human, plasma, oral, 50 mg, single 50 mg, healthy young males
[9] = male, human, plasma, oral, 50 mg, single 50 mg, healthy young males, Japanese
[10] = Healthy Matched Control Subjects
[11] = multiple doses of 240 mg or 180 mg diltiazem
[12] = vibegron 3 mg once daily, OAB Wet subjects
[13] = vibegron 3 mg once daily, Part 1
[14] = vibegron 15 mg once daily, OAB Wet subjects
[15] = vibegron 15 mg once daily, Part 1
[16] = vibegron 50 mg once daily, OAB Wet subjects
[17] = vibegron 50 mg once daily, Part 1
[18] = vibegron 100 mg once daily, OAB Wet subjects

O=C(Nc1ccc(C[C@@H]2CC[C@H]([C@H](O)c3ccccc3)N2)cc1)[C@@H]1CCc2nccc(=O)n21 [vibegron, (6S)—N-[4-[[(2S,5R)-5-[(R)-hydroxy(phenyl)methyl]pyrrolidin-2-yl]methyl]phenyl]-4-oxo-7,8-dihydro-6H-pyrrolo[1,2-a]pyrimidine-6-carboxamide]
Cmax [1, 8]: 31.7 ± 35 ng/mL
Cmax [1, 9]: 62.2 ± 20.4 ng/mL
AUC(0-t) [1, 9]: 385 ± 136 ng·h/mL
AUC(0-inf) ([1]; male, human, plasma, oral, 50 mg, single 50 mg, healthy young males, Japanese, read-out: AUC0-inf): 885 ± 241 ng·h/mL
AUC(0-t) [1, 8]: 219 ± 123 ng·h/mL
AUC(0-inf) ([1]; male, human, plasma, oral, 50 mg, single 50 mg, healthy young males, read-out: AUC0-inf): 551 ± 262 ng·h/mL
t1/2, harmonic mean ± pseudo SD ([1]; single 20 mg, healthy young males): 64.2 ± 12.6 h
t1/2, harmonic mean ± pseudo SD ([1]; single 50 mg, Elderly Male and Female): 92 h and 92.1 ± 15.9 h
t1/2, harmonic mean ± pseudo SD ([1]; single 50 mg, healthy young males, Japanese): 64.4 ± 8.7 h
t1/2, harmonic mean ± pseudo SD ([1]; single 100 mg, healthy young males): 72.8 ± 10.8 h
AUC(0-inf) ([1]; single 150 mg, healthy young males): 2270 ± 911 ng·h/mL
t1/2, harmonic mean ± pseudo SD ([1]; single 200 mg, healthy young males): 75.3 ± 9.1 h
t1/2, harmonic mean ± pseudo SD ([1]; single 200 mg, healthy young males, Japanese): 58.4 ± 9.0 h
t1/2, harmonic mean ± pseudo SD ([1]; single 300 mg, healthy young males, Japanese): 59.7 ± 9.2 h
t1/2, harmonic mean ± pseudo SD ([1]; single 450 mg, healthy young males): 60.0 ± 9.4 h
AUC0-inf higher compared to healthy matched control ([2]; mild renal impairment): 49%
CLR reduced compared to healthy matched control ([2]; mild renal impairment): 39%
Cmax higher compared to healthy matched control ([2]; mild renal impairment): 96%
AUC0-inf higher compared to healthy matched control ([2]; moderate renal impairment): 106%
CLR reduced compared to healthy matched control ([2]; moderate renal impairment): 65%
Cmax higher compared to healthy matched control ([2]; moderate renal impairment): 68%
mean increase in AUC compared to subjects with normal renal function ([2]; moderate renal impairment): 1.6 fold
AUC0-inf higher compared to healthy matched control ([2]; severe renal impairment): 83%
CLR reduced compared to healthy matched control ([2]; severe renal impairment): 82%
Cmax higher compared to healthy matched control ([2]; severe renal impairment): 42%
CL/F, geometric LS mean [2, 10]: 64.9 L/h
Fe[urine]48 hr, geometric mean [2, 10]: 7.9%
CL/F, geometric LS mean ([2]; Mild Renal Impairment): 43.6 L/h
Fe[urine]48 hr, geometric mean ([2]; Mild Renal Impairment): 8.5%
CL/F, geometric LS mean ([2]; Moderate Renal Impairment): 31.5 L/h
Fe[urine]48 hr, geometric mean ([2]; Moderate Renal Impairment): 5.5%
CL/F, geometric LS mean ([2]; Severe Renal Impairment): 35.5 L/h
Fe[urine]48 hr, geometric mean ([2]; Severe Renal Impairment): 2.1%
CL/F increase per one mL/min/1.73 m^2 increase in eGFR ([2]; slope of linear regression): ~0.8%
effect of Tolterodine ER 4 mg on the pharmacokinetics of vibegron ([3]; in vivo): no effect
GM vibegron AUC0-inf increase [3, 11]: 63%
GM vibegron Cmax increase [3, 11]: 68%
dose-response relationship (men and women with OAB; between 50 and 100 mg once daily): relatively shallow dose-response relationship
Total Incontinence Episodes, difference from placebo Week 8, LS means (men and women with OAB; [12]): −0.18
Urgency Incontinence Episodes, difference from placebo Week 8, LS means (men and women with OAB; [12]): −0.28
Micturitions, difference from placebo Week 8, LS means (men and women with OAB; [13]): −0.46
Urgency Episodes, difference from placebo Week 8, LS means (men and women with OAB; [13]): −0.18
Total Incontinence Episodes, difference from placebo Week 8, LS means (men and women with OAB; [14]): −0.48
Urgency Incontinence Episodes, daily number, Week 8 mean (men and women with OAB; [14]): 1.12
Urgency Incontinence Episodes, difference from placebo Week 8, LS means (men and women with OAB; [14]): −0.57
Micturitions, difference from placebo Week 8, LS means (men and women with OAB; [15]): −0.45
Urgency Episodes, difference from placebo Week 8, LS means (men and women with OAB; [15]): −0.67
Total Incontinence Episodes, difference from placebo Week 8, LS means (men and women with OAB; [16]): −0.60
Urgency Incontinence Episodes, difference from placebo Week 8, LS means (men and women with OAB; [16]): −0.72
Micturitions, difference from placebo Week 8, LS means (men and women with OAB; [17]): −0.64
Urgency Episodes, difference from placebo Week 8, LS means (men and women with OAB; [17]): −0.76
average number of daily micturitions compared to placebo at Week 8 (men and women with OAB; vibegron 100 mg and 50 mg treatment groups, Part 1): statistically significant decreases
Total Incontinence Episodes, daily number, Week 8 mean (men and women with OAB; [18]): 1.12
Total Incontinence Episodes, difference from placebo Week 8, LS means (men and women with OAB; [18]): −0.58
Urgency Incontinence Episodes, difference from placebo Week 8, LS means (men and women with OAB; [18]): −0.71
Micturitions, difference from placebo Week 8, LS means (men and women with OAB; vibegron 100 mg once daily, Part 1): −0.91
Micturitions, difference in LS means 100 mg − 50 mg (men and women with OAB; week 8): −0.27
Total incontinence, difference in LS means 100 mg − 50 mg (men and women with OAB; week 8): 0.02
Urgency Episodes, difference in LS means 100 mg − 50 mg (men and women with OAB; week 8): −0.48
Urgency incontinence, difference in LS means 100 mg − 50 mg (men and women with OAB; week 8): 0.01
Accidental overdose, % ([4]; Vibegron 3 mg, N = 144, first 12 weeks): (2.1) %
Accidental overdose, % ([4]; Vibegron 15 mg, N = 134, first 12 weeks): (4.5) %
Accidental overdose, % ([4]; Vibegron 50 mg, N = 148, first 12 weeks): (2.7) %
Accidental overdose, % ([4]; Vibegron 100 mg, N = 261, first 12 weeks): (4.2) %
frequency of injuries ([4]; human, in vivo): 0.9%
dose recovered in feces [5]: approximately 59%
dose recovered in urine [5]: ~20%
postural dizziness, dose relation (healthy subjects; Phase 1 multiple dose studies): appeared to increase at doses ≥100 mg
treatment-emergent serious adverse events (SAEs) or deaths (healthy subjects; Phase 1 program): no treatment-emergent serious adverse events (SAEs) or deaths reported
incidence of AE orthostatic hypotension with symptoms, dose relation (healthy subjects; Phase 1 studies): higher at vibegron doses greater than 150 mg
laboratory safety parameters and ECG parameters (healthy subjects; preliminary Phase 1 safety data): no clinically meaningful changes
tolerability across the Phase 1 program (healthy subjects; single doses 2 to 600 mg, multiple doses 25 to 400 mg up to 28 days): generally well tolerated
orthostatic AEs on coadministration with metoprolol or amlodipine (healthy subjects; vibegron 100 mg, subjects with essential hypertension): no occurrences of orthostatic AEs
severe TEAEs, SAEs or deaths [6]: no severe TEAEs, SAEs or deaths
tolerability of vibegron and rifampin ([7]; healthy male and female subjects): well tolerated
CL/F, geometric mean ([7]; Vibegron + Rifampin 600 mg QD): 57.3 L/h
V/F, geometric mean ([7]; Vibegron + Rifampin 600 mg QD): 6140 L
CL/F, geometric mean ([7]; Vibegron alone): 57.2 L/h
V/F, geometric mean ([7]; Vibegron alone): 6930 L
subjects with an AE related to study drug ([7]; vibegron 75 mg and rifampin 600 mg QD): 15%

From patent US12102638B2 (Urovant Sciences GmbH, priority 2017, dated 2024)
